Test results taken from ChEMBL document CHEMBL3785074, “Molecular modeling and snake venom phospholipase A2 inhibition by phenolic compounds: Structure-activity relationship” (Eur J Med Chem, 2016).
Activity calls are given as the source filed them. The calls are words filed in the database; no cut-off is given here.

Legend:
[1] = test system: Daboia russelii; assay: (§1) Protective activity against Daboia russellii venom-induced hemorrhage in Swiss albino mouse at 100 mmol, iv assessed as hemorhagic lesion by measuring […] administered immediately after venom injection measured after 24 hrs (Rvb =5 ug); assay type: functional
[2] = test system: Naja kaouthia
Description: Protective activity against Naja kaouthia venom-induced mortality in Swiss albino mouse at 100 mmol, iv by measuring venom LD50 administered immediately after venom injection measured after 24 hrs (Rvb = 2.82 ug)

[3] = Protective activity against Naja kaouthia venom-induced mortality in Swiss albino mouse at 100 mmol, iv by measuring venom LD50 preincubated with venom for 1 hr followed by administration to mouse measured after 24 hrs (reference value: 2.82 ug); assay type: functional
[4] = Protective activity against Daboia russellii venom-induced mortality by measuring venom LD50 in Swiss albino mouse at 100 mmol, iv preincubated with venom for 1 hr followed by administration to mouse measured after 24 hrs (reference value: 2.28 ug); assay type: functional, Daboia russelii
[5] = (§2) Protective activity against Daboia russellii venom-induced hemorrhage in intradermally dosed Swiss albino mouse at 100 mmol assessed as hemorhagic lesion by measuring minimal […] dose preincubated with venom for 1 hr followed by administration to mouse measured after 24 hrs (reference value: 5 ug); assay type: functional, Daboia russelii
[6] = Protective activity against Daboia russellii venom-induced mortality in Swiss albino mouse at 100 mmol, iv preincubated with venom for 1 hr followed by administration to mouse measured after 24 hrs relative to untreated control; assay type: functional, Daboia russelii
[7] = Protective activity against Naja kaouthia venom-induced mortality in Swiss albino mouse at 100 mmol, iv preincubated with venom for 1 hr followed by administration to mouse measured after 24 hrs relative to untreated control; assay type: functional
[8] = test system: Daboia russelii; assay: (§3) Protective activity against Daboia russellii venom-induced mortality in Swiss albino mouse at 100 mmol, iv by measuring venom LD50 administered immediately after venom injection measured after 24 hrs (reference value: 2.28ug); assay type: functional
[9] = Protective activity against Daboia russellii venom-induced hemorrhage in intradermally dosed Swiss albino mouse at 100 mmol assessed as hemorhagic lesion preincubated with venom for 1 hr followed by administration to mouse measured after 24 hrs relative to untreated control; assay type: functional, Daboia russelii
[10] = as §1; assay type: functional, Daboia russelii
[11] = Protective activity against Daboia russellii venom-induced mortality in Swiss albino mouse at 100 mmol, iv administered immediately after venom injection measured after 24 hrs relative to untreated control; assay type: functional, Daboia russelii
[12] = Protective activity against Naja kaouthia venom-induced mortality in Swiss albino mouse at 100 mmol, iv administered immediately after venom injection measured after 24 hrs relative to untreated control; assay type: functional
[13] = Protective activity against Naja kaouthia venom-induced mortality in Swiss albino mouse at 100 mmol, iv by measuring venom LD50 administered immediately after venom injection measured after 24 hrs (reference value: 2.82 ug); assay type: functional
[14] = Protective activity against Daboia russellii venom-induced hemorrhage in Swiss albino mouse at 100 mmol, iv assessed as hemorhagic lesion administered immediately after venom injection measured after 24 hrs relative to untreated control; assay type: functional, Daboia russelii
[15] = Protective activity against Daboia russellii venom-induced mortality in iv dosed Swiss albino mouse administered 30 mins after venom injection relative to untreated control; assay type: functional, Daboia russelii
[16] = as §3; assay type: functional, Daboia russelii
[17] = Lipophilicity, log P of compound; assay type: physicochemical; conditions: octanol/water
[18] = test system: Daboia russelii; assay: Protective activity against Daboia russellii venom-induced mortality in iv dosed Swiss albino mouse administered immediately after venom injection relative to untreated control; assay type: functional, organism-based
[19] = test system: Daboia russelii; assay: Protective activity against Daboia russellii venom-induced coagulation in goat plasma assessed as increase in plasma recalcification time at 20 mmol preincubated with venom for 1 hr followed by plasma addition; assay type: functional, cell-free
[20] = Protective activity against Daboia russellii venom-induced defibrinogenation in iv dosed Swiss albino mouse assessed as venom level causing blood coagulation at 100 mmol administered immediately after venom injection (reference value: 2.5 ug); assay type: functional, Daboia russelii
[21] = (§4) Protective activity against Daboia russellii venom-induced defibrinogenation in iv dosed Swiss albino mouse assessed as blood coagulation at 100 mmol administered immediately after venom injection relative to untreated control; assay type: functional, Daboia russelii
[22] = Protective activity against Daboia russellii venom-induced defibrinogenation in iv dosed Swiss albino mouse assessed as venom level causing blood coagulation at 100 mmol preincubated with venom for 1 hr followed by administration to mouse (reference value: 2.5 ug); assay type: functional, Daboia russelii
[23] = (§5) Protective activity against Daboia russellii venom-induced defibrinogenation in iv dosed Swiss albino mouse assessed as venom level causing blood coagulation at 100 mmol preincubated with venom for 1 hr followed by administration to mouse relative to untreated; assay type: functional, Daboia russelii
[24] = test system: Naja kaouthia; assay: Protective activity against Naja kaouthia venom-induced mortality in iv dosed Swiss albino mouse assessed as administered 30 to 60 mins after venom injection; assay type: functional, organism-based
[25] = target: T1, Basic phospholipase A2 VRV-PL-VIIIa (Daboia russelii) (UniProt P59071); assay: Inhibition of Daboia russellii venom PLA2 activity assessed as decrease in coagulation time of egg yolk at 20 mmol preincubated with venom for 1 hr followed by egg yolk addition measured after 1 hr
T1 sequence (whole entry): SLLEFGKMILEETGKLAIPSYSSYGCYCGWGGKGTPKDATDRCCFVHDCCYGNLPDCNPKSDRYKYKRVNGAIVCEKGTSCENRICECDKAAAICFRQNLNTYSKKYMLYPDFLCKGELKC

[26] = Protective activity against Daboia russellii venom-induced mortality in iv dosed Swiss albino mouse administered 60 mins after venom injection relative to untreated control; assay type: functional, Daboia russelii
[27] = test system: Daboia russelii
[28] = test system: Daboia russelii; assay: as §2; assay type: functional
[29] = test system: Naja kaouthia; remark: listed apart in the source
[30] = test system: Daboia russelii; assay: as §4; assay type: functional
[31] = test system: Daboia russelii; assay: as §5; assay type: functional

CCCCCCCOc1ccc(C=O)c(O)c1
MHC [1]: inactive | LD50 [2]: inactive | LD50 [3]: 3 µg | LD50 [4]: 6 µg | MHC [5]: 5 µg | fold change (FC) [6]: 2.6 | fold change (FC) [7]: 1 | LD50 [8]: inactive | fold change (FC) [9]: 1

COc1ccc(C=O)c(OC)c1
MHC [10]: 10 µg | fold change (FC) [11]: 2.5 | fold change (FC) [12]: 1.6 | LD50 [13]: 8 µg | LD50 [3]: 9 µg | LD50 [4]: 22 µg | MHC [5]: 25 µg | fold change (FC) [6]: 9.8 | fold change (FC) [14]: 2 | Activity [15]: 40% | fold change (FC) [7]: 3.2 | LD50 [16]: 100 µg | fold change (FC) [9]: 5 | logP ([17]; read-out: logP): 0.97 | Activity [18]: Active

COc1cccc(CO)c1O
MHC [10]: 10 µg | fold change (FC) [11]: 3.75 | fold change (FC) [12]: 2 | Activity [19]: Active | LD50 [13]: 10 µg | LD50 [3]: 9 µg | LD50 [4]: 25 µg | Activity [20]: 3.5 µg | MHC [5]: 40 µg | fold change (FC) [21]: 1.5 | fold change (FC) [6]: 11.2 | fold change (FC) [14]: 2 | Activity [22]: 25 µg | Activity [15]: 40% | fold change (FC) [7]: 3.2 | LD50 [16]: 150 µg | fold change (FC) [23]: 10 | fold change (FC) [9]: 8 | Activity [24]: inactive | inhibition [25]: Active | Activity [18]: Active | Activity [26]: 10%

CC(=O)Oc1ccc(C=O)c(O)c1
MHC [1]: inactive | LD50 [2]: inactive | LD50 [27]: inactive | MHC [28]: inactive | LD50 [29]: inactive | LD50 [8]: inactive | logP ([17]; read-out: logP): 0.94

O=[N+]([O-])c1ccc2c(c1)OCO2
MHC [1]: inactive | LD50 [2]: inactive | LD50 [27]: inactive | MHC [28]: inactive | LD50 [29]: inactive | LD50 [8]: inactive | logP ([17]; read-out: logP): 1.47

COc1cccc(C=O)c1O
MHC [10]: 10 µg | fold change (FC) [11]: 3.75 | fold change (FC) [12]: 2 | Activity [19]: Active | LD50 [13]: 10 µg | LD50 [3]: 9 µg | LD50 [4]: 25 µg | Activity [20]: 3.5 µg | MHC [5]: 50 µg | fold change (FC) [21]: 1.5 | fold change (FC) [6]: 11.2 | fold change (FC) [14]: 2 | Activity [22]: 25 µg | Activity [15]: 40% | fold change (FC) [7]: 3.2 | LD50 [16]: 150 µg | fold change (FC) [23]: 10 | fold change (FC) [9]: 10 | Activity [24]: inactive | logP [17]: 2.39 | Activity [18]: Active | Activity [26]: 10%

COc1ccc(CO)c(O)c1
MHC [10]: 5 µg | fold change (FC) [11]: 3.75 | fold change (FC) [12]: 2 | Activity [19]: Active | LD50 [13]: 10 µg | LD50 [3]: 9 µg | LD50 [4]: 22 µg | Activity [20]: 3.5 µg | MHC [5]: 30 µg | fold change (FC) [21]: 1.5 | fold change (FC) [6]: 9.8 | fold change (FC) [14]: 1 | Activity [22]: 25 µg | Activity [15]: 40% | fold change (FC) [7]: 3.2 | LD50 [16]: 150 µg | fold change (FC) [23]: 10 | fold change (FC) [9]: 6 | Activity [24]: inactive | Activity [18]: Active | Activity [26]: 10%

O=Cc1ccc(O)cc1O
MHC [10]: 5 µg | fold change (FC) [11]: 2.5 | fold change (FC) [12]: 1.6 | Activity [19]: Active | LD50 [13]: 8 µg | LD50 [3]: 3 µg | LD50 [4]: 6 µg | Activity [20]: 2.5 µg | MHC [5]: 50 µg | fold change (FC) [30]: inactive | fold change (FC) [6]: 2.6 | fold change (FC) [14]: 1 | Activity [22]: 2.5 µg | fold change (FC) [7]: 1 | LD50 [16]: 100 µg | fold change (FC) [31]: inactive | fold change (FC) [9]: 10 | Activity [24]: inactive | logP ([17]; read-out: logP): 1.19 | Activity [26]: 10%

COc1ccc(C=O)c(O)c1
MHC [10]: 10 µg | fold change (FC) [11]: 3.75 | fold change (FC) [12]: 2 | Activity [19]: Active | LD50 [13]: 10 µg | LD50 [3]: 9 µg | LD50 [4]: 22 µg | Activity [20]: 3.5 µg | MHC [5]: 50 µg | fold change (FC) [21]: 1.5 | fold change (FC) [6]: 9.8 | fold change (FC) [14]: 2 | Activity [22]: 22 µg | Activity [15]: 40% | fold change (FC) [7]: 3.2 | LD50 [16]: 150 µg | fold change (FC) [23]: 8.8 | fold change (FC) [9]: 10 | Activity [24]: inactive | logP ([17]; read-out: logP): 3.19 | Activity [18]: Active | Activity [26]: 10%

O=Cc1ccccc1 [BENZALDEHYDE]
MHC [1]: inactive | LD50 [2]: inactive | LD50 [27]: inactive | MHC [28]: inactive | LD50 [29]: inactive | LD50 [8]: inactive | logP ([17]; read-out: logP): 1.47

CCCOc1ccc(C=O)c(O)c1
MHC [1]: inactive | LD50 [2]: inactive | LD50 [27]: inactive | MHC [5]: 5 µg | LD50 [29]: inactive | LD50 [8]: inactive | fold change (FC) [9]: 1

O=Cc1ccccc1O
MHC [10]: 10 µg | MHC [28]: inactive

OCc1cccc(O)c1O
MHC [10]: 10 µg | fold change (FC) [11]: 2.5 | fold change (FC) [12]: 2 | Activity [19]: Active | LD50 [13]: 10 µg | LD50 [3]: 6 µg | LD50 [4]: 18 µg | Activity [20]: 2.5 µg | MHC [5]: 15 µg | fold change (FC) [30]: inactive | fold change (FC) [6]: 8 | fold change (FC) [14]: 2 | Activity [22]: 2.5 µg | fold change (FC) [7]: 2.1 | LD50 [16]: 100 µg | fold change (FC) [31]: inactive | fold change (FC) [9]: 3 | Activity [24]: inactive

CCCCOc1ccc(C=O)c(O)c1
MHC [10]: 10 µg | fold change (FC) [11]: 3.75 | fold change (FC) [12]: 2 | Activity [19]: Active | LD50 [13]: 10 µg | LD50 [3]: 6 µg | LD50 [4]: 18 µg | Activity [20]: 3.5 µg | MHC [5]: 140 µg | fold change (FC) [21]: 1.5 | fold change (FC) [6]: 8 | fold change (FC) [14]: 2 | Activity [22]: 6 µg | fold change (FC) [7]: 2.1 | LD50 [16]: 150 µg | fold change (FC) [23]: 2.4 | fold change (FC) [9]: 8 | Activity [24]: inactive

CCOc1ccc(C=O)c(O)c1
MHC [1]: inactive | LD50 [2]: inactive | LD50 [27]: inactive | MHC [5]: 5 µg | LD50 [29]: inactive | LD50 [8]: inactive | fold change (FC) [9]: 1

C=CCOc1ccc(C=O)c(O)c1
MHC [10]: 10 µg | fold change (FC) [11]: 3.75 | fold change (FC) [12]: 2 | Activity [19]: Active | LD50 [13]: 10 µg | LD50 [3]: 9 µg | LD50 [4]: 22 µg | Activity [20]: 3.5 µg | MHC [5]: 50 µg | fold change (FC) [21]: 1.5 | fold change (FC) [6]: 9.8 | fold change (FC) [14]: 2 | Activity [22]: 5 µg | Activity [15]: 40% | fold change (FC) [7]: 3.2 | LD50 [16]: 150 µg | fold change (FC) [23]: 2 | fold change (FC) [9]: 10 | Activity [24]: inactive | Activity [18]: Active
